Results as given in patent US5922775A, “Method of treating malignant tumors with ketone thyroxine analogues having no significant hormonal activity” (priority 1997, dated 1999).
“Also recorded” adds a separate entry of the source.

How the values were obtained:
[1] = test system: thyroid iodine uptake; conditions: rats; as compared to thyroxine; cited from earlier work
[2] = test system: malignant tumors; conditions: cited from earlier work
[3] = test system: human lung cancer cells (A 549); test: Growth of human lung cancer cells (Table 2 B); format: cell-based
From the text: The effects of these three substances on the growth of human mammary cancer cells (MDA-MB-231) and human lung cancer cells (A 549) are summarized in Table 2.
(×10^3) Cell number per 2 cm^2

[4] = test system: human cancer cells; conditions: cited from earlier work
[5] = test system: Rana pipiens tadpoles; conditions: tadpole metamorphosis; cited from earlier work
[6] = oral, 1 g/Kg/day for two to three months; cited from earlier work

COC(=O)c1cc(I)c(Oc2ccc(OC)cc2)c(I)c1 [DIME, methyl 3,5-diiodo-4-(4'-methoxyphenoxy)benzoate]
inhibition of uptake of iodine into the thyroid [1]: 15%
anti-tumor activity in vivo [2]: potential tumoricidal agent both in cell cultures and in vivo; also recorded: highly active both in cellular assays and in vivo
Cell number ([3]; 2 μM, 48 hours, control 110): 100 ×10^3 cell number per 2 cm^2 w
Cell number ([3]; 2 μM, 72 hours, control 190): 180 ×10^3 cell number per 2 cm^2 w
Cell number ([3]; 5 μM + BNPP 150 μM (esterase inhibitor), 48 hours, control 110): 24 ×10^3 cell number per 2 cm^2 w
Cell number ([3]; 5 μM + BNPP 150 μM (esterase inhibitor), 72 hours, control 190): 15 ×10^3 cell number per 2 cm^2 w
Cell number ([3]; 5 μM, 48 hours, control 110): 72 ×10^3 cell number per 2 cm^2 w
Cell number ([3]; 5 μM, 72 hours, control 190): 135 ×10^3 cell number per 2 cm^2 w
effect of esterase inhibitor BNPP on cytocidal action ([3]; lung cancer cells, with BNPP): the esterase inhibitor supported the DIME effect (at 72 hrs)
cytostatic / cytocidal activity ([4]; cellular assays and in vivo): highly active both in cellular assays and in vivo
growth inhibition of malignant cell types [4]: inhibit the growth of a variety of malignant cell types
tumor cell apoptosis [4]: induce tumor cell apoptosis preceded by micronucleation
tumoricidal activity in cell cultures [4]: potential tumoricidal agent both in cell cultures and in vivo
cell differentiating / metamorphogenic activity [5]: no significant metabolic or metamorphogenic action; also recorded: no significant metabolic or cell differentiating activity
toxicity [6]: not toxic
